From PMC8496750, “Identification of the organic anion transporting polypeptides responsible for the hepatic uptake of the major metabolite of epyrifenacil, S‐3100‐CA, in mice” (Pharmacology Research & Perspectives, 2021)

How the values were obtained:
mouse Oatp2b1 = molecular target: T1, mouse Oatp2b1 (Mus musculus, UniProt Q8BXB6); assay: Uptake assay for radiolabeled substrates, mouse Oatp2b1 expressing 293FT cells; conditions: 10‐min incubation
T1 sequence (Q8BXB6 1-683): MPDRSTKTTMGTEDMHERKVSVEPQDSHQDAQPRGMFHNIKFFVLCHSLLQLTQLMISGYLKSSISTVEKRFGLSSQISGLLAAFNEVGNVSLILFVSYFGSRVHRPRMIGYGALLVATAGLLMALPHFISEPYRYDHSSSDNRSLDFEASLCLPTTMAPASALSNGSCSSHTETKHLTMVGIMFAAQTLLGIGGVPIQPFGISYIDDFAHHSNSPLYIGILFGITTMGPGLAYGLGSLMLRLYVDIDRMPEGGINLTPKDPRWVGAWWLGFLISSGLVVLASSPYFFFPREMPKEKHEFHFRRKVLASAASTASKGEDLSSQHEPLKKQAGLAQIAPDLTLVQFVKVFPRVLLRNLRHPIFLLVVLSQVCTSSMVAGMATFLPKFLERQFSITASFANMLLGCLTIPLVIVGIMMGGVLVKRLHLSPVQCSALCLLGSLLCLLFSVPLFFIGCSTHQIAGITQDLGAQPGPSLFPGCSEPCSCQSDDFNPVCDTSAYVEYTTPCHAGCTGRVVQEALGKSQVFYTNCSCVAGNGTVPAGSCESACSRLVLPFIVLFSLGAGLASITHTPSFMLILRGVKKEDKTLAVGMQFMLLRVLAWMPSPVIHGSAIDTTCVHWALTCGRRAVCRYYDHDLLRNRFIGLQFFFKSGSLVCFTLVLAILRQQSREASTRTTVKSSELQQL
Method: (§1) 293FT cells were purchased from Thermo Fisher Scientific, Inc.. The cells were grown in Dulbecco's modified Eagle medium (supplemented with 4.5 g/L glucose and 2 mM L‐glutamine) at 37°C, 5% CO2, and 95% humidity. The cells were passaged 3 times per week by harvesting cells using trypsin and plating at a density of 1.0 × 10^4 cells/cm^2 in a 10 cm cell culture plate for maintenance culture. The 293FT cells were detached using trypsin and re‐seeded at a density of 2.5 × 10^4 cells/cm^2 in BioCoat™ Collagen I 6‐well plates (Corning Inc.) for transfection and then treated with 1.2 μg of plasmid vector and 3.2 μl of Lipofectamine™ 2000 Transfection Reagent (Thermo Fisher Scientific, Inc.) according to the manufacturer's instructions. After a 3‐h treatment, the transfection medium was replaced with a fresh cell culture medium and incubated at 37°C with 95% humidity and 5% CO2 until ready for the assay.
(§2) Transport experiments were conducted approximately 24 h post‐transfection. The experiments were initiated by aspirating culture medium and addition of pre‐warmed radiolabeled substrate solution (final 1.0% of acetonitrile or 0.9% of ethanol in phosphate‐buffered saline (PBS[−])) to each well. After a 10‐min incubation, cells were washed twice with 1 ml of ice‐cold PBS(−) and lysed with 700 μl of 1.0 M NaOH for 3 h or more at room temperature. The lysate was transferred to a 1.5‐ml tube, and neutralized with 350 μl of 2.0 M HCl and 350 μl of 2.0% sodium dodecyl sulfate (SDS) solution. From the lysate, 1.0 ml was transferred to a vial containing 10 ml of Emulsifier Scintillator Plus to measure the radioactivity in the LSC. The protein concentration of the cell lysate was also measured using a Pierce™ BCA Protein Assay Kit (Thermo Fisher Scientific, Inc.), which was used to normalize, according to the cell number, the radioactivity in the cell lysate extract. The protein assay was performed in duplicate. Each sample type was assayed in triplicate wells, and each run was performed twice. When the difference in mean uptake between OATP expressing cells and mock cells was more than 2 times, the OATP was judged to be involved in transportation of the substrate. […] Each sample type was assayed in triplicate wells.

human OATP1B3 = molecular target: T2, human OATP1B3 (Homo sapiens, UniProt Q9NPD5); assay: Uptake assay for radiolabeled substrates, human OATP1B3 expressing 293FT cells; format: in vitro ADME; conditions: 10‐min incubation
T2 construct: expressed in transfected cells; host or cells: 293FT cells
T2 sequence (Q9NPD5 1-702): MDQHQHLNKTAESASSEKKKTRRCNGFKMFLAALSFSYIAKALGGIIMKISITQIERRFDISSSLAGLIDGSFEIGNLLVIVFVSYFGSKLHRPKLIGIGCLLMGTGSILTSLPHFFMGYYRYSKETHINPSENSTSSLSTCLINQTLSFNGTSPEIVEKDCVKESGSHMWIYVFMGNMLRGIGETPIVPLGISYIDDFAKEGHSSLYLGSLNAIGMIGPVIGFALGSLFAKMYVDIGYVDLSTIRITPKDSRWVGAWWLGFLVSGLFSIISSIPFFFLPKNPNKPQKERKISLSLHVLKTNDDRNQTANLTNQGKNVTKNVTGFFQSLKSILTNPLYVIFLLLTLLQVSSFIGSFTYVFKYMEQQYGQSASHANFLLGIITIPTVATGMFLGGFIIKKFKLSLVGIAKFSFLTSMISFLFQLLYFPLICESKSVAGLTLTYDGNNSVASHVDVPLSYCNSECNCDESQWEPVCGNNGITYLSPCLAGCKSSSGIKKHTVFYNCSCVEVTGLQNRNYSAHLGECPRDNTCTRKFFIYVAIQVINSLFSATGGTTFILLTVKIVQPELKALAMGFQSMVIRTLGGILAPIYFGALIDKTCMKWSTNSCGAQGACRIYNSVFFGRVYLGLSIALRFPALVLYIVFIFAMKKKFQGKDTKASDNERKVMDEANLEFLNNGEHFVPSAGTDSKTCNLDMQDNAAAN
Method: as §1, §2

hepatocytes = test system: hepatocytes; design: method as in PMID 34908893; conditions: mouse vs human hepatocytes; cited from earlier work

SMILES	Ratio of uptake amount relative to the uptake into mock cells (mouse Oatp2b1; Run_1)	Ratio of uptake amount relative to the uptake into mock cells (mouse Oatp2b1; Run_2)	Ratio of uptake amount relative to the uptake into mock cells (human OATP1B3; Run_1)	Ratio of uptake amount relative to the uptake into mock cells (human OATP1B3; Run_2)	Amount taken up by mouse hepatocytes relative to human hepatocytes (hepatocytes)
C[C@]12CC[C@@H]3c4ccc(OS(=O)(=O)O)cc4CC[C@H]3[C@@H]1CCC2=O [E3S, Estrone 3‐sulfate]	2.9	3.9	2.7	3.3	
C[C@]12CC[C@@H]3c4ccc(O)cc4CC[C@H]3[C@@H]1CC[C@@H]2O[C@@H]1O[C@H](C(=O)O)[C@@H](O)[C@H](O)[C@H]1O [E217βG, Estradiol 17β‐D‐glucuronide]	4.1	2.0	19.3	12.9	
Cn1c(C(F)(F)F)cc(=O)n(-c2cc(Oc3cccnc3OCC(=O)O)c(Cl)cc2F)c1=O [S‐3100‐CA]	2.4	4.0	3.1	5.1	6–13 times
